# From article PMC5917092, “Fine-Tuned Enzymatic Hydrolysis of Organosolv Pretreated Forest Materials for the Efficient Production of Cellobiose” (Frontiers in Chemistry, 2018)
# “Also recorded” adds a separate entry of the source.
# Legend:
# [1] = molecular target: TtCBH7 (Thermothelomyces thermophilus, UniProt G2Q665); test: Kinetics and inhibition of TtCBH7 by mono/oligosaccharides with MUG2 as substrate (Lineweaver-Burk); type: biochemical, Thermothelomyces thermophila; details: for Kmapp: TtCBH7, substrate MUG2, in the presence of 10 mM inhibitor; for Inhibitory effect on TtCBH7 (in words): activity on MUG2, inhibitor 5 and 10 mM
# Experimental: (§1) The release of methyl-umbelliferyl was followed by measuring the absorbance at A350. The inhibition of CBHs by specific mono/oligosaccharides was determined by estimating the enzymatic activity on MUG2 in presence of different inhibitor concentrations (5 and 10 mM). Kinetic analysis of inhibition was carried out on xylose (X1), xylobiose (X2), xylotriose (X3), mannose (M1), mannobiose (M2), mannotriose (M3), glucose (G1), cellobiose (G2), and xylosyl-cellobiose (XC). Lineweaver–Burk plots were drawn to determine Km, Vmax, and inhibition constant (Ki) values.
# Figure 4 Inhibition studies of TtCBH7 by glucan, xylan, and mannan mono- and oligo-saccharides. Absorbance at 355 nm was measured after 30 min incubation with MUG2 at concentrations ranging from 0.1 to 2 mM, at 45°C, pH 5.0.
# [2] = tested on: TtCBH6; test: Kinetics and inhibition of TtCBH6 by mono/oligosaccharides with MUG2 as substrate (Lineweaver-Burk); type: biochemical, Thermothelomyces thermophila; details: for Inhibitory effect on TtCBH6 (in words): activity on MUG2, inhibitor 5 and 10 mM
# Experimental: as §1, with “[…].” for “A350.”, “Lineweaver-Burk” for “Lineweaver–Burk”
# [3] = TtCBH7, substrate MUG2, inhibitor 5 mM (Km app)
# [4] = TtCBH7, substrate MUG2, inhibitor 10 mM
# [5] = TtCBH7, substrate MUG2, inhibitor 10 mM (Km app)
# [6] = TtCBH6, substrate MUG2, inhibitor 5 mM (Km app)
# [7] = TtCBH6, substrate MUG2, inhibitor 10 mM (Km app)
# TtCBH7, sequence (G2Q665 entry or part of it): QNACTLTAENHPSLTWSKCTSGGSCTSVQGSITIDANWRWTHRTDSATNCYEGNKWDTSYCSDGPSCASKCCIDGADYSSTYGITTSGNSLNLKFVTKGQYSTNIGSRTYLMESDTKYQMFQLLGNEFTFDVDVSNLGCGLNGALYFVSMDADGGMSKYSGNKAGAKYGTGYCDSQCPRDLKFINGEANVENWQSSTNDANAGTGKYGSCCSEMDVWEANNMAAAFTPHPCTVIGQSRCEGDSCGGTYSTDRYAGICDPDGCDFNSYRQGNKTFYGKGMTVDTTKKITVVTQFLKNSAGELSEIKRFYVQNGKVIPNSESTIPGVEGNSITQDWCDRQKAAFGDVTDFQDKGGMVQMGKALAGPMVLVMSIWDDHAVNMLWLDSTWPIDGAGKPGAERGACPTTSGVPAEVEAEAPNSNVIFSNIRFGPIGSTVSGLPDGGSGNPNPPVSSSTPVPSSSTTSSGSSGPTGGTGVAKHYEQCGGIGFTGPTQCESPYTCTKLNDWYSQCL
Compound,Kmapp [1] [mM],"Ki ([1]; TtCBH7, substrate MUG2, inhibitor 5 mM) [mM]","Km/Km^app [1, 3] [µM]","Ki [1, 4] [mM]","Km/Km^app [1, 5] [µM]",Inhibitory effect on TtCBH7 (in words) [1],"Km/Km^app [2, 6] [µM]","Km/Km^app [2, 7] [µM]",Inhibitory effect on TtCBH6 (in words) [2],"Km ([1]; TtCBH7, absence of any inhibitor) [µM]","Km/Km^app ([1]; TtCBH7, substrate MUG2, no inhibitor (Km), pH 5.0, 45°C) [µM]","Km/Km^app ([2]; TtCBH6, substrate MUG2, no inhibitor (Km), pH 5.0, 45°C) [µM]"
"O=C[C@H](O)[C@@H](O)[C@H](O[C@@H]1O[C@H](CO)[C@@H](O)[C@H](O)[C@H]1O)[C@H](O)CO [Cellobiose, cellobiose]",6.54,1.43,4.04,1.59,6.54,strong inhibitor; also recorded: strongly inhibited,0.40,0.45,no inhibitory effect,,,
"OC[C@H]1OC(O)[C@H](O)[C@@H](O)[C@@H]1O (some centres unmarked) [Glucose, glucose]",1.58,,1.00,13.2,1.58,,0.39,0.41,no inhibitory effect,,,
"Cc1cc(=O)oc2cc(O[C@@H]3O[C@H](CO)[C@@H](O[C@@H]4O[C@H](CO)[C@@H](O)[C@H](O)[C@H]4O)[C@H](O)[C@H]3O)ccc12 [MUG2, 4-methyl-umbelliferyl-β-cellobiose]",,,,,,,,,,900,0.90,0.42
"OC[C@H]1O[C@@H](O[C@H]2[C@H](O)[C@H](O)C(O)O[C@@H]2CO)[C@@H](O)[C@@H](O)[C@@H]1O (some centres unmarked) [Mannobiose, mannobiose]",1.04,,0.91,,1.04,,0.38,0.35,,,,
"OC1OC[C@@H](O[C@@H]2OC[C@@H](O)[C@H](O)[C@H]2O)[C@H](O)[C@H]1O (some centres unmarked) [Xylobiose, xylobiose]",1.17,,0.81,33.3,1.17,,0.44,0.41,,,,
"OC1OC[C@@H](O[C@@H]2OC[C@@H](O[C@@H]3OC[C@@H](O)[C@H](O)[C@H]3O)[C@H](O)[C@H]2O)[C@H](O)[C@H]1O (some centres unmarked) [Xylotriose, xylotriose]",,,0.77,,0.95,very weak inhibitory effect,0.42,0.46,,,,
mannotriose,,,0.88,,0.98,very weak inhibitory effect,0.41,0.44,,,,
xylosyl-cellobiose,,,0.99,,1.01,,0.43,0.48,,,,
